Where only a bound is given, the exact number is not on record here.

We go through 16 compounds from patent US20240101576A1, “HETEROCYCLIC INHIBITORS OF EGFR AND/OR HER2, FOR USE IN THE TREATMENT OF CANCER” (Scorpion Therapeutics, Inc., priority 2020, published 2024).

Format in all cases: cell-based
Experiment [1] has as its target T1, EGFR exon 20 ASV Ins V769_D770 (Ba/F3 cells) (Homo sapiens, UniProt P00533, INS769ASV).
T1 construct: expressed in transfected cells; host or cells: Ba/F3 (murine pro-B cells), retroviral transduction, puromycin selection, IL3-independent pool
As to the kind of experiment: Inhibitor activity on EGFR-dependent cell growth (CellTiter-Glo, 72 h), Ba/F3 EGFR exon 20 ASV Ins. The settings on record: read-out: BaF3 ASV IC50. Put shortly:
(§1)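 IC50s derive from a sigmoidal dose–response fit of CellTiter-Glo signal. The signal was normalised between […]-treated cells and cell-free medium. Ba/F3 mutant-EGFR cells, seeded at 400–800/well depending on the line, had 72 h of exposure to a 10-point, 3-fold compound series.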
Background: In ATP-based viability assays light output follows the ATP content of the culture.

In experiment [2] the target is T2, EGFR exon 20 NPG Ins D770_N771 (Ba/F3 cells) (Homo sapiens, UniProt P00533, INS770NPG).
T2 construct: expressed in transfected cells; host or cells: Ba/F3 (murine pro-B cells), retroviral transduction, puromycin selection, IL3-independent pool
As to the kind of experiment: Inhibitor activity on EGFR phosphorylation (pEGFR AlphaLISA, 2 h), Ba/F3 EGFR exon 20 NPG Ins. From the text:
Example B. Inhibitor Activity on EGFR phosphorylation (pEGFR)
EGFR mutant Ba/F3 cells were generated by transduction with retrovirus containing vectors expressing EGFR L858R, EGFR exon 19del, EGFR L858R/C797S, EGFR exon 20 NPG Ins D770_N771, EGFR exon 20 ASV Ins V769_D770, or EGFR exon 20 SVD Ins D770_N771 genes along with a puromycin selection marker. Transduced cells are selected with puromycin for 7 days and are then be transferred into culture media without Interleukin 3 (IL3). Surviving cells are confirmed to express EGFR by Western blot and maintained as a pool. CUTO14 cells were obtained from Dr. Robert C. Doebele at the University of Colorado. The IC50 date are included in Table 6 and Table 7.
1.1 Cells are harvested from flask into cell culture medium and the cell number counted.
1.2 Cells are diluted with culture medium to the desired density and 40 μL of cell suspension is added into each well of 384-well cell culture plate and the seeding density is 50K cells/well (Ba/F3) or 12.5K cells/well (CUTO14).
2 Compound Preparation and Treatment
2.1 Test compounds are dissolved to 10 mM in a DMSO stock solution. 45 μL of stock solution is transferred to a 384 polypropylene plate (pp-plate). Perform 3-fold, 10-point dilution via transferring 15 μL compound into 30 μL DMSO using a TECAN (EVO200) liquid handler.
2.2 Spin plates at room temperature at 1,000 RPM for 1 minute.
2.3 Transfer 5 nL of diluted compound from compound source plate into the cell plate.
2.4 After compound treatment for 2 hours, perform pEGFR detection by AlphaLISA for compound treatment plates as described in “Detection” section.
3 Detection by pEGFR AlphaLISA (Perkin-Elmer)
3.1 Plates are removed from incubators and equilibrated at room temperature for 10 minutes, and media was removed
3.2 10 μL of lysis buffer is added and plates shaken at 600 rpm for 1 hr.
3.3 Prepare acceptor mix just before use and dispense 5 μL of acceptor mix to all the wells. Shake 350 rpm for Ihr in the dark
3.4 Prepare donor mix under low light conditions prior to use. Dispense 5 μL of donor mix to all the wells. Mix well on the shaker, seal and wrap in aluminum foil and incubate 1.5 hrs at room temperature in the dark
3.5 Transfer 18.5 μL mixture to OptiPlate 384, and read using an Envision. The IC50 date were included in Table 6 and Table 7.
(In general: Alpha assays give light when donor and acceptor beads are brought close together.)

Experiment [3] concerns the target T3, EGFR exon 20 FQEA Ins A763_V764 (Ba/F3 cells) (Homo sapiens, UniProt P00533, INS763FQEA).
T3 construct: expressed in transfected cells; host or cells: Ba/F3 (murine pro-B cells), retroviral transduction, puromycin selection, IL3-independent pool
The experiment is described as follows: Inhibitor activity on EGFR-dependent cell growth (CellTiter-Glo, 72 h), Ba/F3 EGFR exon 20 FQEA Ins. The settings on record: read-out: BaF3 FQEA IC50. Summed up:
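Ba/F3 cells engineered with each EGFR variant were plated (400, 600 or 800 per well for L858R, L858R/C797S, and exon 19del/FQEA). They were exposed for 72 hours to compound serially diluted from a 10 mM DMSO stock. Remaining viable cells were quantified by CellTiter-Glo, and IC50 was curve-fitted.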

Experiment [4] concerns the target T2, EGFR exon 20 NPG Ins D770_N771 (Ba/F3 cells). The experiment is described as follows: Inhibitor activity on EGFR-dependent cell growth (CellTiter-Glo, 72 h), Ba/F3 EGFR exon 20 NPG Ins. The settings on record: read-out: BaF3 NPG IC50. Put shortly: as §1
Experiment [5] has as its target T4, EGFR exon 20 SVD Ins D770_N771 (Ba/F3 cells) (Homo sapiens, UniProt P00533, INS770SVD).
T4 construct: expressed in transfected cells; host or cells: Ba/F3 (murine pro-B cells), retroviral transduction, puromycin selection, IL3-independent pool
As to the kind of experiment: Inhibitor activity on EGFR-dependent cell growth (CellTiter-Glo, 72 h), Ba/F3 EGFR exon 20 SVD Ins. The conditions noted are these: read-out: BaF3 SVD IC50. Put shortly: as §1

For another experiment, the target named is T5, EGFR WT (Ba/F3 cells) (Homo sapiens, UniProt P00533).
T5 construct: expressed in transfected cells; host or cells: Ba/F3 (murine pro-B cells), retroviral transduction, puromycin selection, maintained with EGF
The experiment is described as follows: Inhibitor activity on EGFR-dependent cell growth (CellTiter-Glo, 72 h), Ba/F3 EGFR WT. The conditions noted are these: read-out: BaF3 WT IC50. Put shortly:
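This growth assay used Ba/F3 cells that depend on wild-type EGFR and are kept in EGF without IL3. Compounds were made up as 10 mM DMSO stocks and diluted 3-fold over 10 points. 120 nL went onto 600 cells/well. After 72 hours, 40 μL CellTiter-Glo was added and luminescence read on EnVision after 30 min.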

T5 sequence (P00533 25-1210): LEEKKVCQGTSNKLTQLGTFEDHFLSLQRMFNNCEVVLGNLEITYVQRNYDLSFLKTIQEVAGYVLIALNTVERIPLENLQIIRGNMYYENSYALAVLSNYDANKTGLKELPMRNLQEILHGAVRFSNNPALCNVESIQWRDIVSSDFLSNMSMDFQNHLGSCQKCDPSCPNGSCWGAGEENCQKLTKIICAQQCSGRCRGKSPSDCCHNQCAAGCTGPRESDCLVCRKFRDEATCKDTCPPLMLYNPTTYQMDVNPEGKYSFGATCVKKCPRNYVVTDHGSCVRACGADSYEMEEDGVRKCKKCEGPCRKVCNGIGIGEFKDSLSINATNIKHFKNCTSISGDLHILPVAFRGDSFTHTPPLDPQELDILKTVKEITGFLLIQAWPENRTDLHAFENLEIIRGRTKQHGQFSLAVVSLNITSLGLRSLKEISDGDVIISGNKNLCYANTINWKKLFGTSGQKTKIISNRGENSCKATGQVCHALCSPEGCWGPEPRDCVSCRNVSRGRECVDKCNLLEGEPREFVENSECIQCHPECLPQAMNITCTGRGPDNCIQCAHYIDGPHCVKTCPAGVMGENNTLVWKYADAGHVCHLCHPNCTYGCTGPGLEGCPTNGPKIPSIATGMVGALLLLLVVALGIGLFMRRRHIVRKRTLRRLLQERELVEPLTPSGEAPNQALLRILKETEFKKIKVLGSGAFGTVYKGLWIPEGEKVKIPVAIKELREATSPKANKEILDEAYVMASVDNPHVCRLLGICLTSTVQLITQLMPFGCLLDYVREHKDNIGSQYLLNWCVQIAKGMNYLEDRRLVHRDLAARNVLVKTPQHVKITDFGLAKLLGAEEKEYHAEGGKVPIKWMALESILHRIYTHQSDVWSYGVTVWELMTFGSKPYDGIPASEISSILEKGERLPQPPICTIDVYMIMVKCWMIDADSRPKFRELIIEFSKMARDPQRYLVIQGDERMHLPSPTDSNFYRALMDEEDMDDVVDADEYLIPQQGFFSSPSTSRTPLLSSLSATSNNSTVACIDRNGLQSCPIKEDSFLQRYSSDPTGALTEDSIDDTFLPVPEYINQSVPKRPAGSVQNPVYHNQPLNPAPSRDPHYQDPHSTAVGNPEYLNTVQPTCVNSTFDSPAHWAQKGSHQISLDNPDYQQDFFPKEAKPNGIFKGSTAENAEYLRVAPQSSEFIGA
T3 sequence (P00533 with tags, fused parts or gaps INS763FQEA): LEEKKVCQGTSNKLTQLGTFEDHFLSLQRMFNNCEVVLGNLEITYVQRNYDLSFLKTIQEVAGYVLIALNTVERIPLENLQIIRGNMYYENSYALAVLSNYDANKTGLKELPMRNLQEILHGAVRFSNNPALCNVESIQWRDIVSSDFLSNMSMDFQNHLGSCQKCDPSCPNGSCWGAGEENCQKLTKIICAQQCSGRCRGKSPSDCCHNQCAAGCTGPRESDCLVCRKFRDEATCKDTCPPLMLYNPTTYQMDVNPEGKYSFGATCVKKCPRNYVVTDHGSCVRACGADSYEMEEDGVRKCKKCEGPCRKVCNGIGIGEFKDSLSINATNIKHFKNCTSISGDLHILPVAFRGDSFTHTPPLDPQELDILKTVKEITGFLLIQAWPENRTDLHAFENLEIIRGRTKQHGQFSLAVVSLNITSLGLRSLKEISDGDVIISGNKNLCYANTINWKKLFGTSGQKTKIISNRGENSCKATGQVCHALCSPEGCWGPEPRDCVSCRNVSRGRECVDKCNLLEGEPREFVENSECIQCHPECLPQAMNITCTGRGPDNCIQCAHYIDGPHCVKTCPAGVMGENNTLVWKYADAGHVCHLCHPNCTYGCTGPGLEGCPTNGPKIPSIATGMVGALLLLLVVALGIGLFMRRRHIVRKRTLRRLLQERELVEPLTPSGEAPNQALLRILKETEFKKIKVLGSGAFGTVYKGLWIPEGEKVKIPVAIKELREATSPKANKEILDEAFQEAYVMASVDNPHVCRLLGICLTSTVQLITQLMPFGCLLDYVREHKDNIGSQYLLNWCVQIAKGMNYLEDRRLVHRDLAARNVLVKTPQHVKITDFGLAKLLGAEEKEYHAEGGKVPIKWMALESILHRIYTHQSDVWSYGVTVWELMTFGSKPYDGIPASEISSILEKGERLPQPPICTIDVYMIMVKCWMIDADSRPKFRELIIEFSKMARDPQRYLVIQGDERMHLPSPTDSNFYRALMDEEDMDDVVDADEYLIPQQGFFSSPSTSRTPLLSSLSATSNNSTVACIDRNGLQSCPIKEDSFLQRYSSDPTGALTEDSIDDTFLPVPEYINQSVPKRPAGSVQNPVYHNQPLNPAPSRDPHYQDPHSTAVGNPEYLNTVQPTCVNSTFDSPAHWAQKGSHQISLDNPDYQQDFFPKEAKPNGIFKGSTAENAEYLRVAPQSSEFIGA
T1 sequence (P00533 with tags, fused parts or gaps INS769ASV): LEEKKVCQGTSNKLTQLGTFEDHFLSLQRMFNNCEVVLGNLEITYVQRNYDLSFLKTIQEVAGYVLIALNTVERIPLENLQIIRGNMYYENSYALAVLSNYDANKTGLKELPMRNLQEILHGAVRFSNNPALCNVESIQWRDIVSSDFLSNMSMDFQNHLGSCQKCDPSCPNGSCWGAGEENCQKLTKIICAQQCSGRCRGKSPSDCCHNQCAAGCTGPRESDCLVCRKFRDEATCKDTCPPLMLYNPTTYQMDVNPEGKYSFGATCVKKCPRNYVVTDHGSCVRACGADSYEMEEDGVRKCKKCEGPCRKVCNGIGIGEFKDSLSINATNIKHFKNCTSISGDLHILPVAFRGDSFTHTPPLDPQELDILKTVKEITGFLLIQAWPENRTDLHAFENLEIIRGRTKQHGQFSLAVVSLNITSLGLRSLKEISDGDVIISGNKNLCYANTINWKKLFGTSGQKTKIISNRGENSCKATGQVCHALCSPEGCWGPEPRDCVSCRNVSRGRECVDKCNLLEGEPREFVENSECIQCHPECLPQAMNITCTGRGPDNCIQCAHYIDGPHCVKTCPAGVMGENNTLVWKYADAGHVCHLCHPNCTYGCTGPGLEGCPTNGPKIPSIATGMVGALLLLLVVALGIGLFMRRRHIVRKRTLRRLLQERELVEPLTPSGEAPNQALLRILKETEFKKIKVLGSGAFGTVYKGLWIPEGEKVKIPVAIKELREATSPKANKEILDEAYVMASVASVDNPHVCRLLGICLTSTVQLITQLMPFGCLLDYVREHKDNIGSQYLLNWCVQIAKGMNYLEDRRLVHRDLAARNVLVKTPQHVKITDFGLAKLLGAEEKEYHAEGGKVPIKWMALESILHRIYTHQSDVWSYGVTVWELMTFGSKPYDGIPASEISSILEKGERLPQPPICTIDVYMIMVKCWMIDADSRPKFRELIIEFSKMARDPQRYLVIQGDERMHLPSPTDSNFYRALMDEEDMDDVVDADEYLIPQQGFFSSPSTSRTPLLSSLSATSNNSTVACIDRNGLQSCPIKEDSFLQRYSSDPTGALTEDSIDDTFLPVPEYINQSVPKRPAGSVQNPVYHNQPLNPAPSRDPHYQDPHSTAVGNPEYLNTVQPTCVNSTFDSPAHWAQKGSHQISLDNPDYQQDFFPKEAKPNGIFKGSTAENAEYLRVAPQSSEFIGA
T2 sequence (P00533 with tags, fused parts or gaps INS770NPG): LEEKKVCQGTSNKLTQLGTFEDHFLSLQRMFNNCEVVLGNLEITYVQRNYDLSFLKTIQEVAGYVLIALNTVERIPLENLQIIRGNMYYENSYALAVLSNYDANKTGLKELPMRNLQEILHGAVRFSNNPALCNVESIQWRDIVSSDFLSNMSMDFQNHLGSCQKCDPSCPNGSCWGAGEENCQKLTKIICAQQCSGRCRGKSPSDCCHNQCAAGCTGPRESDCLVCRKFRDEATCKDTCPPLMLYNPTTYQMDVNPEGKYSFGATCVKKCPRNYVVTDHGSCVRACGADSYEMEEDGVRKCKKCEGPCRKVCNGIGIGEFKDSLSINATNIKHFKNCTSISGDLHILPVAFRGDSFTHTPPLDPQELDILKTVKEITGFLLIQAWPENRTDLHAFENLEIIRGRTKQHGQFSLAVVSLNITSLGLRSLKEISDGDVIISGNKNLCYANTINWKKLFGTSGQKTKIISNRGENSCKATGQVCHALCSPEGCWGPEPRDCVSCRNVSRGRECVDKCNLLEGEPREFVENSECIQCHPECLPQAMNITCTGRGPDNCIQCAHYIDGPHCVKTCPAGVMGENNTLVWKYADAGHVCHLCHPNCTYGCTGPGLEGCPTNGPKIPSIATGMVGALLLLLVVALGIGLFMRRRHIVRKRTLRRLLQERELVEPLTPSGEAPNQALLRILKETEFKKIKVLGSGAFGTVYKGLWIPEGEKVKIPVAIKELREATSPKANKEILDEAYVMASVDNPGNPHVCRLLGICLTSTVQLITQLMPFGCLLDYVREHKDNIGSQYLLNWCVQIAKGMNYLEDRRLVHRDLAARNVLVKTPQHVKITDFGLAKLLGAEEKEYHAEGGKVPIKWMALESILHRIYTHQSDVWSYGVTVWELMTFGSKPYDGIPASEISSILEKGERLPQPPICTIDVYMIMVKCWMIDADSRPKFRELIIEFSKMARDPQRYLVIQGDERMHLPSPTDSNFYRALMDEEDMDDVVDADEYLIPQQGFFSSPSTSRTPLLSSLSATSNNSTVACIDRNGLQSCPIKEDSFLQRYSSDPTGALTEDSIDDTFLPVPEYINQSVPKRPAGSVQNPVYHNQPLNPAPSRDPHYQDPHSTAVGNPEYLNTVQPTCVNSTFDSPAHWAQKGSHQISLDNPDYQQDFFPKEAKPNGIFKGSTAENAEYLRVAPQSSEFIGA

A word on the IC50: it is the concentration needed to halve the response being measured. With `COc1ccc2nccc(-c3[nH]c4c(c3Nc3cccc(Cl)c3OC)C(=O)NCC4)c2n1` [Compound 149, 3-((3-chloro-2-methoxyphenyl)amino)-2-(6-methoxy-1,5-naphthyridin-4-yl)-1,5,6,7-tetrahydro-4H-pyrrolo[3,2-c]pyridin-4-one], the IC50 in experiment [1], in experiment [2], in experiment [3], in experiment [4] and in experiment [5] was < 100 nM throughout.

Regarding `COc1c(F)cccc1Nc1c(-c2ncnc3c2ccn3C)[nH]c2c1C(=O)NCC2` [Compound 150, 3-((3-fluoro-2-methoxyphenyl)amino)-2-(7-methyl-7H-pyrrolo[2,3-d]pyrimidin-4-yl)-1,5,6,7-tetrahydro-4H-pyrrolo[3,2-c]pyridin-4-one], the IC50 (in experiment [2]; in experiment [4]; on EGFR WT (Ba/F3 cells)) was > 1000 nM throughout.

Take `COc1c(F)cccc1Nc1c(-c2snc3ccccc23)[nH]c2c1C(=O)NCC2` [Compound 157, 2-(benzo[c]isothiazol-3-yl)-3-((3-fluoro-2-methoxyphenyl)amino)-1,5,6,7-tetrahydro-4H-pyrrolo[3,2-c]pyridin-4-one]: the IC50 in experiment [2] was > 1000 nM; in experiment [4], > 1000 nM; at EGFR WT (Ba/F3 cells) it was 100 to 1000 nM.

On to `COc1c(F)cccc1Nc1c(-c2ncnc3[nH]ncc23)[nH]c2c1C(=O)NCC2` [Compound 158, 3-((3-fluoro-2-methoxyphenyl)amino)-2-(1H-pyrazolo[3,4-d]pyrimidin-4-yl)-1,5,6,7-tetrahydro-4H-pyrrolo[3,2-c]pyridin-4-one], for which the IC50 is 100 to 1000 nM in experiment [2], > 1000 nM in experiment [4] and > 1000 nM at EGFR WT (Ba/F3 cells).

Take `COc1c(F)cccc1Nc1c(-c2ccnc(-c3ccccc3)c2)[nH]c2c1C(=O)NCC2` [Compound 159, 3-((3-fluoro-2-methoxyphenyl)amino)-2-(2-phenylpyridin-4-yl)-1,5,6,7-tetrahydro-4H-pyrrolo[3,2-c]pyridin-4-one]: the IC50 in experiment [2] is > 1000 nM; in experiment [4] it was > 1000 nM; at EGFR WT (Ba/F3 cells), 100 to 1000 nM.

On to `COc1c(Cl)cccc1Nc1c(-c2ccnc(N)n2)[nH]c2c1C(=O)NC[C@@H]2C[C@@H]1COCCO1` [Compound 532, (7S)-2-(2-aminopyrimidin-4-yl)-3-[(3-chloro-2-methoxyphenyl)amino]-7-[(2R)-1,4-dioxan-2-ylmethyl]-1H,5H,6H,7H-pyrrolo[3,2-c]pyridin-4-one], for which the IC50 was < 100 nM in experiment [1]; < 100 nM in experiment [2]; < 100 nM in experiment [4]; < 100 nM in experiment [5]; > 1000 nM on EGFR WT (Ba/F3 cells).

In the case of `C=CC(=O)N1CCC2(CC1)CNC(=O)c1c2[nH]c(-c2ccncc2F)c1Nc1cccc(F)c1CC` [Compound 557, 3′-[(2-ethyl-3-fluorophenyl)amino]-2′-(3-fluoropyridin-4-yl)-1-(prop-2-enoyl)-5′,6′-dihydro-1′H-spiro[piperidine-4,7′-pyrrolo[3,2-c]pyridin]-4′-one], the IC50 (in experiment [1]; in experiment [2]; in experiment [4]; in experiment [5]; at EGFR WT (Ba/F3 cells)) was < 100 nM in each case.

Regarding `C=CC(=O)N1CCN(c2ncc3nccc(-c4[nH]c5c(c4Nc4cccc(F)c4OC)C(=O)NCC5)c3n2)CC1` [Compound 576, 3-[(3-fluoro-2-methoxyphenyl)amino]-2-{2-[4-(prop-2-enoyl)piperazin-1-yl]pyrido[3,2-d]pyrimidin-8-yl}-1H,5H,6H,7H-pyrrolo[3,2-c]pyridin-4-one], the IC50 (in experiment [1]; in experiment [2]; in experiment [4]; in experiment [5]; on EGFR WT (Ba/F3 cells)) was < 100 nM each time.

In the case of `COc1ccc2nccc(-c3[nH]c4c(c3Nc3cccc(F)c3OC)C(=O)NCC4)c2n1` [Compound 681, 3-[(3-fluoro-2-methoxyphenyl)amino]-2-(6-methoxy-1,5-naphthyridin-4-yl)-1H,5H,6H,7H-pyrrolo[3,2-c]pyridin-4-one], the IC50 (in experiment [1]; in experiment [2]; in experiment [3]; in experiment [4]; in experiment [5]; on EGFR WT (Ba/F3 cells)) was < 100 nM in each case.

On to `COc1nc2c(-c3[nH]c4c(c3Nc3cccc(F)c3OC)C(=O)NCC4)ccnc2cc1C` [Compound 682, 3-[(3-fluoro-2-methoxyphenyl)amino]-2-(6-methoxy-7-methyl-1,5-naphthyridin-4-yl)-1H,5H,6H,7H-pyrrolo[3,2-c]pyridin-4-one], for which the IC50 (in experiment [2]; in experiment [4]; on EGFR WT (Ba/F3 cells)) was < 100 nM throughout.

With `COc1ccc2nccc(-c3[nH]c4c(c3Nc3cccc(F)c3C)C(=O)NCC4)c2n1` [Compound 684, 3-[(3-fluoro-2-methylphenyl)amino]-2-(6-methoxy-1,5-naphthyridin-4-yl)-1H,5H,6H,7H-pyrrolo[3,2-c]pyridin-4-one], the IC50 in experiment [1] is < 100 nM; in experiment [2] it was < 100 nM; in experiment [3] it was < 100 nM; in experiment [4], < 100 nM; in experiment [5] it was < 100 nM; at EGFR WT (Ba/F3 cells) it was 100 to 1000 nM.

With `C=CC(=O)N1CCC(Oc2nc3c(-c4[nH]c5c(c4Nc4cccc(Cl)c4OC)C(=O)NCC5)ccnc3cc2OC)CC1` [Compound 731, 3-[(3-chloro-2-methoxyphenyl)amino]-2-(7-methoxy-6-{[1-(prop-2-enoyl)piperidin-4-yl]oxy}-1,5-naphthyridin-4-yl)-1H,5H,6H,7H-pyrrolo[3,2-c]pyridin-4-one], the IC50 (in experiment [1]; in experiment [2]; in experiment [4]; in experiment [5]; on EGFR WT (Ba/F3 cells)) was < 100 nM throughout.

As for `COc1cc2nccc(-c3[nH]c4c(c3Nc3cccc(F)c3C)C(=O)NCC4)c2nc1OC` [Compound 808, 2-(6,7-dimethoxy-1,5-naphthyridin-4-yl)-3-[(3-fluoro-2-methylphenyl)amino]-1H,5H,6H,7H-pyrrolo[3,2-c]pyridin-4-one], the IC50 (in experiment [1]; in experiment [2]; in experiment [3]; in experiment [5]; on EGFR WT (Ba/F3 cells)) was < 100 nM in each case.

For `COc1c(F)cccc1Nc1c(-c2ncnc3sccc23)[nH]c2c1C(=O)NCC2` [compound 138], the IC50 (in experiment [2]; in experiment [4]; on EGFR WT (Ba/F3 cells)) was > 1000 nM in each case.

Turning to `COc1c(F)cccc1Nc1c(-c2ccnc(N)n2)[nH]c2c1C(=O)NCC2` [compound 281], the IC50 was < 100 nM in experiment [2], 100 to 1000 nM in experiment [3], < 100 nM in experiment [4] and > 1000 nM on EGFR WT (Ba/F3 cells).

As for `Nc1nccc(-c2[nH]c3c(c2Nc2cccc(F)c2OC(F)F)C(=O)NCC3)n1` [compound 299], the IC50 in experiment [1] is 100 to 1000 nM; in experiment [2], < 100 nM; in experiment [3], 100 to 1000 nM; in experiment [4] it was 100 to 1000 nM; in experiment [5], 100 to 1000 nM; at EGFR WT (Ba/F3 cells), > 1000 nM.
